Test results taken from US6605424B1, “Method of detecting inhibitors of agonist-specific desensitization” (Duke University, priority 1989, dated 2003).
Several values for one entry are separate records, joined by “and”; a condition that tells them apart may be missing. Equal values may be shown once.

Legend:
[1] = target: T1, βAR kinase (Bos taurus, UniProt P21146); assay: Phosphorylation of rhodopsin (urea-treated rod outer segments) by βAR kinase; type: biochemical, bovine
T1 construct: βAR kinase was purified from bovine cerebral cortex; from tissue; host or cells: bovine cerebral cortex
T1 sequence (P21146 1-689): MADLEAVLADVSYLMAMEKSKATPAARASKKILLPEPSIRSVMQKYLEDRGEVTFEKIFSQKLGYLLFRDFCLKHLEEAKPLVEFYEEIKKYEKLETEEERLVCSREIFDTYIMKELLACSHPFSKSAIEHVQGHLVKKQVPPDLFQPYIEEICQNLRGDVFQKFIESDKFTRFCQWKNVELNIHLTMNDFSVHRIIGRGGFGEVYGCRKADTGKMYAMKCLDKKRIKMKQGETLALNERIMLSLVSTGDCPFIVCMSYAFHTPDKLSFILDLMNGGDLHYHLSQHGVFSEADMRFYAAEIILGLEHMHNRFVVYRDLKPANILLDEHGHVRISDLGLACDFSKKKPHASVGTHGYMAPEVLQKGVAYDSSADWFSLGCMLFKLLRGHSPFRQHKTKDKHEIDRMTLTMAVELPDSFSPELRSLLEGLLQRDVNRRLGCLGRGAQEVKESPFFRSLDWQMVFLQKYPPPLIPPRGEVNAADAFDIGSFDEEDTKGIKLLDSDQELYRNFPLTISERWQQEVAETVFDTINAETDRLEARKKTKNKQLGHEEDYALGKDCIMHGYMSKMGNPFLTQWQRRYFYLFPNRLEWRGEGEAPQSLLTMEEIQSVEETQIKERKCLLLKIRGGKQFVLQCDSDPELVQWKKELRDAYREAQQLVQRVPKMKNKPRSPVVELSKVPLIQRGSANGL
Procedure: βAR kinase was purified from bovine cerebral cortex by modification of procedure of Benovic et al (J. Biol. Chem. (1987) 262:9026-9032). Briefly, 250 g of bovine cerebral cortex were homogenized with a Brinkmann tissue disrupter and centrifuged (40,000×g, 30 min). The supernatant was then precipitated with 13-26% ammonium sulfate. This material was initially chromatographed on a Ultrogel AcA34 column equilibrated with 5 mM Tris-HCl, pH 7.5, 2 mM EDTA, 10 μg/ml leupeptin, 5 μg/ml pepstatin, 10 μg/ml benzamidine, 0.2 mM phenylmethylsulfonyl fluoride (buffer A). The peak activity was diluted with an equal volume of buffer A containing 0.04% Triton X-100 before being applied to a DEAE-Sephacel column. Elution was accomplished with a 0-80 mM NaCl gradient in buffer A containing 0.02% Triton X-100. The peak activity was then applied to a CM-Fractogel column and eluted with a 0-100 mM NaCl gradient in buffer A containing 0.02% Triton X-100. The purified kinase is stable at 4° C. for several months. For these studies the βAR kinase preparations were >75% pure.
Rod outer segments were prepared from bovine retinas by stepwise sucrose gradient centrifugation (Wilden et al Biochemistry (1982) 21:3014-3022). Rhodopsin kinase-free rod outer segments were prepared by treatment with 5 M urea (Shichi et al J. Biol. Chem. (1978) 253:7040-7046) and consisted of ˜95% rhodopsin, as assessed by Coomassie Blue staining of sodium dodecyl sulfate-polyacrylamide gels.
Urea-treated rod outer segments were phosphorylated with βAR kinase as follows. Urea-treated rod outer segments (˜4 μg of rhodopsin) were incubated with βAR kinase (˜0.1 μg) for 10-15 min at 30° C. in the presence of 40 mM Tris-HCl, pH 7.4, 10 mM NaCl, 5 mM MgCl2, 1.5 mM EDTA, and 65 μM ATP (˜1 cpm/fmol) (total reaction volume was 40 μl). Reactions were stopped by the addition of 40 μl of sodium dodecyl sulfate sample buffer (see below) followed by sodium dodecyl sulfate-polyacrylamide gel electrophoresis. After autoradiography, the phosphorylated rhodopsin bands were excised and counted.
Sodium dodecyl sulfate-polyacrylamide gel electrophoresis was performed by the method of Laemmli (Nature (1970) 227:680-685) using 10% homogeneous polyacrylamide slab gels. Sample buffer contained 8% sodium dodecyl sulfate, 10% glycerol, 5% 3-mercaptoethanol, 25 mM Tris-HCl, pH 6.5, and 0.003% bromphenol blue. After electrophoresis, gels were dried with a Bio-Rad gel dryer prior to autoradiography.

[2] = test system: permeabilized A431 cells; assay: Accumulation of [32P]cAMP in permeabilized cells; type: cell-based, human; conditions: up to 1 μM; presence or absence of isoproterenol
[3] = test system: β2ARs in permeabilized A431 cells; assay: Desensitization of β2ARs in permeabilized A431 cells; type: cell-based, human
[4] = target: T1, βAR kinase; assay: Phosphorylation of purified reconstituted β2ARs by purified βAR kinase (Example II); type: biochemical, bovine; conditions: for IC50: 50 μM (−)-isoproterenol, read-out: IC50, inhibition of phosphorylation of reconstituted β2ARs by βAR kinase
[5] = test system: β2ARs in intact A431 cells; assay: Desensitization of β2ARs in intact A431 cells; type: cell-based, human; conditions: data not shown

- Hill coefficient of inhibition ([1]; data of FIG. 1): ~2
- IC50 ([1]; read-out: IC50 (concentration of compound which gave 50% inhibition of βAR kinase), rhodopsin as substrate): 150 nM
- IC50 (concentration of compound which gave 50% inhibition of βAR kinase) ([1]; rhodopsin as substrate, mean ± S.E.): 0.77 ± 0.10 µg/mL
- Inhibition of βAR kinase, % ([4]; 0.1 μM): 96 ± 1%
- IC50 ([4]; listed as heparin): 6.1 ± 2 nM
- IC50 [4]: 6 nM
- extent of inhibition of β2AR phosphorylation ([4]; at 30-100 nM): almost complete inhibition
Substance: heparin
- effect on [32P]cAMP formation [2]: did not reduce
- Inhibition of Desensitization, % ([3]; 0.1 μM): 102 ± 16%
- effect on time course of desensitization ([3]; 100 nM heparin, 1 μM (−)-isoproterenol): almost completely abolished
- IC50 ([3]; 1 μM (−)-isoproterenol, 10 min, 37° C., read-out: IC50, inhibition of desensitization): 21 nM and 20 nM
- extent of inhibition of desensitization ([3]; at concentrations above 100 nM): virtually complete
- effect on desensitization in intact cells [5]: Neither compound affected desensitization
